In brackets after ≈: the same amount, converted by molar mass. Activity calls are given as the source filed them. No cut-off for these calls is given here.
Key:
A549 = test: Cytotoxicity against human A549 cells after 24 hrs by MTT assay; assay type: functional, cell-based; details: A549, 24 h
MCF7 = test: Cytotoxicity against human MCF7 cells after 24 hrs by MTT assay; assay type: functional, cell-based; details: MCF7, 24 h
DU-145 = test: Cytotoxicity against human DU145 cells after 24 hrs by MTT assay; assay type: functional, cell-based; details: DU-145, 24 h
HeLa = test: Cytotoxicity against human HeLa cells after 24 hrs by MTT assay; assay type: functional, cell-based
Micrococcus luteus [1] = test: Antimicrobial activity against Micrococcus luteus MTCC 2470 after 24 hrs by well diffusion method; assay type: functional
Staphylococcus aureus [2] = test: Antimicrobial activity against Staphylococcus aureus MTCC 96 after 24 hrs by well diffusion method; assay type: functional
Staphylococcus aureus [3] = test: Antimicrobial activity against Staphylococcus aureus MLS-16 MTCC 2940 after 24 hrs by well diffusion method; assay type: functional
Bacillus subtilis [4] = test: Antimicrobial activity against Bacillus subtilis MTCC 121 after 24 hrs by well diffusion method; assay type: functional
Escherichia coli [5] = test: Antimicrobial activity against Escherichia coli MTCC 739 after 24 hrs by well diffusion method; assay type: functional
Pseudomonas aeruginosa [6] = test: Antimicrobial activity against Pseudomonas aeruginosa MTCC 2453 after 24 hrs by well diffusion method; assay type: functional
Raoultella planticola [7] = test: Antimicrobial activity against Klebsiella planticola MTCC 530 after 24 hrs by well diffusion method; assay type: functional
Candida albicans [8] = details: MTCC 3017
Description: (§1) Antimicrobial activity against Candida albicans MTCC 3017 after 24 hrs by well diffusion method

Candida albicans [9] = test: microbe, parasite or virus in culture; details: MTCC 3017, 24 h
Description: as §1

Micrococcus luteus [10] = test: Antimicrobial activity against Micrococcus luteus MTCC 2470 assessed as inhibition of biofilm formation after 24 hrs by crystal violet staining-based assay; assay type: functional, organism-based; details: MTCC 2470, 24 h
Staphylococcus aureus [11] = test: Antimicrobial activity against Staphylococcus aureus MTCC 96 assessed as inhibition of biofilm formation after 24 hrs by crystal violet staining-based assay; assay type: functional, organism-based; details: MTCC 96, 24 h
Staphylococcus aureus [12] = test: Antimicrobial activity against Staphylococcus aureus MLS-16 MTCC 2940 assessed as inhibition of biofilm formation after 24 hrs by crystal violet staining-based assay; assay type: functional, organism-based; details: MLS-16 MTCC 2940, 24 h
Raoultella planticola [13] = test: Antimicrobial activity against Klebsiella planticola MTCC 530 assessed as inhibition of biofilm formation after 24 hrs by crystal violet staining-based assay; assay type: functional, organism-based; details: MTCC 530, 24 h
Pseudomonas aeruginosa [14] = test: Antimicrobial activity against Pseudomonas aeruginosa MTCC 2453 assessed as inhibition of biofilm formation after 24 hrs by crystal violet staining-based assay; assay type: functional, organism-based; details: MTCC 2453, 24 h
Micrococcus luteus [15] = test: Bactericidal activity against Micrococcus luteus MTCC 2470 after 24 hrs by agar plating method; assay type: functional; details: MTCC 2470, 24 h
Staphylococcus aureus [16] = test: Bactericidal activity against Staphylococcus aureus MTCC 96 after 24 hrs by agar plating method; assay type: functional; details: MTCC 96, 24 h
Staphylococcus aureus [17] = test: Bactericidal activity against Staphylococcus aureus MLS-16 MTCC 2940 after 24 hrs by agar plating method; assay type: functional; details: MLS-16 MTCC 2940, 24 h
Bacillus subtilis [18] = test: Bactericidal activity against Bacillus subtilis MTCC 121 after 24 hrs by agar plating method; assay type: functional; details: MTCC 121, 24 h
Escherichia coli [19] = test: Bactericidal activity against Escherichia coli MTCC 739 after 24 hrs by agar plating method; assay type: functional; details: MTCC 739, 24 h
Pseudomonas aeruginosa [20] = test: Bactericidal activity against Pseudomonas aeruginosa MTCC 2453 after 24 hrs by agar plating method; assay type: functional; details: MTCC 2453, 24 h
Raoultella planticola [21] = test: Bactericidal activity against Klebsiella planticola MTCC 530 after 24 hrs by agar plating method; assay type: functional; details: MTCC 530, 24 h

Row | Compound | MIC (Micrococcus luteus [1]; MTCC 2470, 24 h) | MIC (Staphylococcus aureus [2]; MTCC 96, 24 h) | MIC (Staphylococcus aureus [3]; MLS-16 MTCC 2940, 24 h) | MIC (Bacillus subtilis [4]; MTCC 121, 24 h) | MIC (Escherichia coli [5]; MTCC 739, 24 h) | MIC (Pseudomonas aeruginosa [6]; MTCC 2453, 24 h) | MIC (Candida albicans [8]) | IC50 (Micrococcus luteus [10]) | IC50 (Staphylococcus aureus [11]) | IC50 (Staphylococcus aureus [12]) | IC50 (Pseudomonas aeruginosa [14]) | IC50 (A549) | IC50 (MCF7) | IC50 (DU-145) | IC50 (HeLa) | MIC (Raoultella planticola [7]; MTCC 530, 24 h) | IC50 (Raoultella planticola [13]) | MBC (Micrococcus luteus [15]) | MBC (Staphylococcus aureus [16]) | MBC (Staphylococcus aureus [17]) | also measured
1 | Clc1ccc(COC(Cn2ccnc2)c2ccc(Cl)cc2Cl)c(Cl)c1 (stereo unspecified) [MICONAZOLE] | – | – | – | – | – | – | – | – | – | – | – | – | – | – | – | – | – | – | – | – | MIC (Micrococcus luteus [1]): inactive; MIC (Staphylococcus aureus [2]): inactive; MIC (Staphylococcus aureus [3]): inactive; MIC (Bacillus subtilis [4]): inactive; MIC (Escherichia coli [5]): inactive; MIC (Pseudomonas aeruginosa [6]): inactive; MIC (Raoultella planticola [7]): inactive; MIC (Candida albicans [9]): 7.8 µg/mL (≈ 18.7 µM)
2 | CCCCCCCCCCn1nc(-n2cc(COc3cc(C(F)(F)F)nc(N)n3)nn2)c2ccc(C(F)(F)F)nc21 | 15.6 µg/mL (≈ 26.6 µM) | 7.8 µg/mL (≈ 13.3 µM) | 7.8 µg/mL (≈ 13.3 µM) | 15.6 µg/mL (≈ 26.6 µM) | 7.8 µg/mL (≈ 13.3 µM) | 7.8 µg/mL (≈ 13.3 µM) | inactive | 3.9 µg/mL (≈ 6.66 µM) | 7.8 µg/mL (≈ 13.3 µM) | 3.9 µg/mL (≈ 6.66 µM) | 3.9 µg/mL (≈ 6.66 µM) | 4.2 µM | 37.2 µM | 5.8 µM | 34.3 µM | 7.8 µg/mL (≈ 13.3 µM) | 3.9 µg/mL (≈ 6.66 µM) | 15.6 µg/mL (≈ 26.6 µM) | 15.6 µg/mL (≈ 26.6 µM) | 7.8 µg/mL (≈ 13.3 µM) | MBC (Bacillus subtilis [18]): 31.2 µg/mL (≈ 53.3 µM); MBC (Escherichia coli [19]): 15.6 µg/mL (≈ 26.6 µM); MBC (Pseudomonas aeruginosa [20]): 15.6 µg/mL (≈ 26.6 µM); MBC (Raoultella planticola [21]): 7.8 µg/mL (≈ 13.3 µM)
3 | Nc1nc(C(F)(F)F)cc(=O)n1Cc1cn(-c2nn(CCC(F)(F)C(F)(F)C(F)(F)C(F)(F)C(F)(F)C(F)(F)C(F)(F)C(F)(F)F)c3nc(C(F)(F)F)ccc23)nn1 | – | – | – | – | – | – | – | – | – | – | – | 68.2 µM | > 100 µM | 88.8 µM | > 100 µM | – | – | – | – | – | –
4 | CCCCCCCCn1nc(-n2cc(Cn3c(N)nc(C(F)(F)F)cc3=O)nn2)c2ccc(C(F)(F)F)nc21 | – | – | – | – | – | – | – | – | – | – | – | 10.1 µM | 11.3 µM | 12.2 µM | 9.4 µM | – | – | – | – | – | –
5 | CC[C@H]1OC(=O)[C@H](C)[C@@H](O[C@H]2C[C@@](C)(OC)[C@@H](O)[C@H](C)O2)[C@H](C)[C@@H](O[C@@H]2O[C@H](C)C[C@H](N(C)C)[C@H]2O)[C@](C)(O)C[C@@H](C)C(=O)[C@H](C)[C@@H](O)[C@]1(C)O [ERYTHROMYCIN] | – | – | – | – | – | – | – | 0.24 µg/mL (≈ 0.327 µM) | 0.32 µg/mL (≈ 0.436 µM) | 0.32 µg/mL (≈ 0.436 µM) | 0.26 µg/mL (≈ 0.354 µM) | – | – | – | – | – | 0.21 µg/mL (≈ 0.286 µM) | – | – | – | –
6 | C=CCn1nc(-n2cc(Cn3c(N)nc(C(F)(F)F)cc3=O)nn2)c2ccc(C(F)(F)F)nc21 | – | – | – | – | – | – | – | – | – | – | – | > 100 µM | 20.2 µM | > 100 µM | 18.2 µM | – | – | – | – | – | –

More lines, main results first:

Row | MIC (Micrococcus luteus [1]; MTCC 2470, 24 h) | MIC (Staphylococcus aureus [2]; MTCC 96, 24 h) | MIC (Staphylococcus aureus [3]; MLS-16 MTCC 2940, 24 h) | MIC (Bacillus subtilis [4]; MTCC 121, 24 h) | MIC (Escherichia coli [5]; MTCC 739, 24 h) | MIC (Pseudomonas aeruginosa [6]; MTCC 2453, 24 h) | MIC (Candida albicans [8]) | IC50 (Micrococcus luteus [10]) | IC50 (Staphylococcus aureus [11]) | IC50 (Staphylococcus aureus [12]) | IC50 (Pseudomonas aeruginosa [14]) | Compound | IC50 (A549) | IC50 (MCF7) | IC50 (DU-145) | IC50 (HeLa) | MIC (Raoultella planticola [7]; MTCC 530, 24 h) | IC50 (Raoultella planticola [13]) | MBC (Micrococcus luteus [15]) | MBC (Staphylococcus aureus [16]) | MBC (Staphylococcus aureus [17]) | also measured
7 | > 250 µg/mL | > 250 µg/mL | > 250 µg/mL | > 250 µg/mL | > 250 µg/mL | > 250 µg/mL | inactive | – | – | – | – | CCCCCCCCn1nc(-n2cc(COc3cc(C(F)(F)F)nc(N)n3)nn2)c2ccc(C(F)(F)F)nc21 | 5.7 µM | 24.7 µM | 6.3 µM | 22.7 µM | > 250 µg/mL | – | – | – | – | –
8 | 7.8 µg/mL (≈ 17.5 µM) | 15.6 µg/mL (≈ 35 µM) | 15.6 µg/mL (≈ 35 µM) | 15.6 µg/mL (≈ 35 µM) | 7.8 µg/mL (≈ 17.5 µM) | 7.8 µg/mL (≈ 17.5 µM) | inactive | 7.8 µg/mL (≈ 17.5 µM) | 7.8 µg/mL (≈ 17.5 µM) | 7.8 µg/mL (≈ 17.5 µM) | 3.9 µg/mL (≈ 8.76 µM) | Nc1nc(OCc2cn(-c3n[nH]c4nc(C(F)(F)F)ccc34)nn2)cc(C(F)(F)F)n1 | 22.8 µM | > 100 µM | 28.9 µM | > 100 µM | 15.6 µg/mL (≈ 35 µM) | 7.8 µg/mL (≈ 17.5 µM) | 15.6 µg/mL (≈ 35 µM) | 31.2 µg/mL (≈ 70.1 µM) | 31.2 µg/mL (≈ 70.1 µM) | MBC (Bacillus subtilis [18]): 31.2 µg/mL (≈ 70.1 µM); MBC (Escherichia coli [19]): 7.8 µg/mL (≈ 17.5 µM); MBC (Pseudomonas aeruginosa [20]): 15.6 µg/mL (≈ 35 µM); MBC (Raoultella planticola [21]): 31.2 µg/mL (≈ 70.1 µM)
9 | > 250 µg/mL | > 250 µg/mL | > 250 µg/mL | > 250 µg/mL | > 250 µg/mL | > 250 µg/mL | inactive | – | – | – | – | CCn1nc(-n2cc(COc3cc(C(F)(F)F)nc(N)n3)nn2)c2ccc(C(F)(F)F)nc21 | 25.4 µM | > 100 µM | 27.7 µM | > 100 µM | > 250 µg/mL | – | – | – | – | –
10 | > 250 µg/mL | 15.6 µg/mL (≈ 29.4 µM) | 7.8 µg/mL (≈ 14.7 µM) | 15.6 µg/mL (≈ 29.4 µM) | 15.6 µg/mL (≈ 29.4 µM) | 15.6 µg/mL (≈ 29.4 µM) | inactive | 7.8 µg/mL (≈ 14.7 µM) | 3.9 µg/mL (≈ 7.34 µM) | 7.8 µg/mL (≈ 14.7 µM) | 15.6 µg/mL (≈ 29.4 µM) | CCOC(=O)Cn1nc(-n2cc(COc3cc(C(F)(F)F)nc(N)n3)nn2)c2ccc(C(F)(F)F)nc21 | 16.3 µM | 12.4 µM | 18.2 µM | 9.8 µM | 7.8 µg/mL (≈ 14.7 µM) | 3.9 µg/mL (≈ 7.34 µM) | 15.6 µg/mL (≈ 29.4 µM) | 15.6 µg/mL (≈ 29.4 µM) | 15.6 µg/mL (≈ 29.4 µM) | MBC (Bacillus subtilis [18]): 15.6 µg/mL (≈ 29.4 µM); MBC (Escherichia coli [19]): 31.2 µg/mL (≈ 58.7 µM); MBC (Pseudomonas aeruginosa [20]): 15.6 µg/mL (≈ 29.4 µM); MBC (Raoultella planticola [21]): 15.6 µg/mL (≈ 29.4 µM)

From ChEMBL document CHEMBL3286384, “Synthesis, cytotoxicity, antimicrobial and anti-biofilm activities of novel pyrazolo[3,4-b]pyridine and pyrimidine functionalized 1,2,3-triazole derivatives” (Bioorg Med Chem Lett, 2014)
